# Measurements reported in ChEMBL document CHEMBL4811258, “Potent Antimalarials with Development Potential Identified by Structure-Guided Computational Optimization of a Pyrrole-Based Dihydroorotate Dehydrogenase Inhibitor Series” (J Med Chem, 2021).
# How the values were obtained:
# [1] = biological target: Dihydroorotate dehydrogenase (quinone), mitochondrial (Rattus norvegicus, UniProt Q63707); assay: Inhibition of rat DHODH up to 100 uM; details: up to 100 µM
# HepG2 = assay: Cytotoxicity against human HepG2 cells; assay type: cell-based
# [2] = AUC (0 to infinity) in Sprague-Dawley rat at 28 mg/kg, po measured up to 24 hrs; assay type: ADME, organism-based; parameters: route oral, dose 28 mg/kg, time <=24; details: in vivo
# [3] = Volume of distribution at steady state in Swiss mouse at […], iv measured up to 24 hrs by LC-MS analysis; assay type: ADME, organism-based; details: in vivo, dose 2.8 mg/kg, read-out: Vdss
# [4] = Unbound intrinsic clearance in mouse liver microsomes at 1 uM measured up to 4 hrs by LC-MS analysis; assay type: ADME, Microsome
# [5] = Intrinsic clearance in mouse liver microsomes at 1 uM measured up to 4 hrs by LC-MS analysis; assay type: ADME, Microsome
# [6] = Tmax in Swiss mouse at 20 mg/kg, po measured up to 24 hrs by LC-MS analysis; assay type: ADME, organism-based; details: in vivo
# [7] = biological target: Dihydroorotate dehydrogenase (quinone), mitochondrial (Mus musculus, UniProt O35435); assay: Inhibition of mouse DHODH up to 100 uM; details: up to 100 µM
# Sequence of Dihydroorotate dehydrogenase (quinone), mitochondrial (Mus musculus, UniProt O35435) (O35435 whole entry): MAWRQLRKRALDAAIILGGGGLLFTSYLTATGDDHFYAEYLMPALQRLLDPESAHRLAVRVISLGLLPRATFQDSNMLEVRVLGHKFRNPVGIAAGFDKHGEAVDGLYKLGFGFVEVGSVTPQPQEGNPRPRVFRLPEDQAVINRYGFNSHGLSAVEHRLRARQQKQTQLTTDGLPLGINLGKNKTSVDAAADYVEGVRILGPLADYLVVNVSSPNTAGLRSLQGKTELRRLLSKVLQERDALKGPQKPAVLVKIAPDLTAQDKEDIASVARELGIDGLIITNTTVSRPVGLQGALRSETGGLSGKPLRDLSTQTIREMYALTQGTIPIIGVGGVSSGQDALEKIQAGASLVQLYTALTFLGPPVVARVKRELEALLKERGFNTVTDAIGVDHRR
# [8] = Half life in Swiss mouse at 20 mg/kg, po measured up to 24 hrs by LC-MS analysis; assay type: ADME, organism-based; details: in vivo
# [9] = Inhibition of dog DHODH up to 100 uM; parameters: species or system Canis lupus familiaris; details: up to 100 µM
# [10] = Tmax in Sprague-Dawley rat at 28 mg/kg, po measured up to 24 hrs; assay type: ADME, organism-based; details: in vivo
# [11] = human, plasma
# [12] = Cmax in Swiss mouse at 20 mg/kg, po measured up to 24 hrs by LC-MS analysis; assay type: ADME, organism-based; parameters: route oral, dose 20 mg/kg, time <=24; details: in vivo
# Albumin = Albumin (Bos taurus, UniProt P02769); assay: Binding affinity to bovine serum albumin by Albumax assay; assay type: ADME; details: cattle, isolated protein
# Sequence of Albumin (P02769 whole entry): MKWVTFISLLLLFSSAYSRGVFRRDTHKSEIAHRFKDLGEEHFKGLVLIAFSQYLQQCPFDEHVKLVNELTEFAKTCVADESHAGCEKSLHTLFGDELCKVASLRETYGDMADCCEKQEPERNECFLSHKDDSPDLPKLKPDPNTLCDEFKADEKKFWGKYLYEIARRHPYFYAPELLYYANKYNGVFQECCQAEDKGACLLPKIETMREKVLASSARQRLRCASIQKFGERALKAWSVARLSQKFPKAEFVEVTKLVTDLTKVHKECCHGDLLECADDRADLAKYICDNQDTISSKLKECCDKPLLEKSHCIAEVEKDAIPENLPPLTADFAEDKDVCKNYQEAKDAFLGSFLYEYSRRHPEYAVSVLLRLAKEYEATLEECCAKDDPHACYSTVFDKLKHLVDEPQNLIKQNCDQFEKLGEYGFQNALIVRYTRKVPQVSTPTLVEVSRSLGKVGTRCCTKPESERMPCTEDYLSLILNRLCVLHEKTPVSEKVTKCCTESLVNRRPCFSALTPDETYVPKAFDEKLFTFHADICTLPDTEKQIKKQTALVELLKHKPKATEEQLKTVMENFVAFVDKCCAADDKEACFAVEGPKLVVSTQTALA
# [13] = Oral bioavailability in Swiss mouse at 20 mg/kg measured up to 24 hrs by LC-MS analysis; assay type: ADME, organism-based; details: in vivo
# [14] = Inhibition of Plasmodium vivax DHODH expressed in Escherichia coli BL21-DE3 using L-dihydroorotate as substrate by steady-state DCIP method
# [15] = Binding affinity to microsome (unknown origin); assay type: ADME; details: microsomes
# L1210 = assay: Cytotoxicity against mouse L1210 cells; assay type: cell-based
# [16] = human, caco-2, pH 7.4
# Plasmodium berghei = assay: Antiplasmodial activity against liver stage Plasmodium berghei berghei-ANKA-GFP-Luc-SMCON (Pb-Luc) assessed as parasite killing infected in HepG2-A16-CD8IEGF cells; assay type: functional, organism-based
# [17] = mouse, plasma
# [18] = rat, plasma
# Plasmodium falciparum [19] = assay: Antiplasmodial activity against asexual blood stage chloroquine and pyrimethamine-resistant Plasmodium falciparum Dd2 infected in human erythrocytes assessed as parasite killing; assay type: functional, organism-based
# [20] = Plasma clearance in Swiss mouse at […], iv measured up to 24 hrs by LC-MS analysis; assay type: ADME, organism-based; details: dose 2.8 mg/kg
# [21] = Apparent half life in Sprague-Dawley rat at 28 mg/kg, po measured up to 24 hrs; assay type: ADME, organism-based; details: in vivo, read-out: t1/2(app) (converted)
# [22] = AUC (0 to infinity) in Swiss mouse at 20 mg/kg, po measured up to 24 hrs by LC-MS analysis; assay type: ADME, organism-based; parameters: route oral, dose 20 mg/kg, time <=24; details: in vivo
# [23] = Oral bioavailability in Sprague-Dawley rat at 28 mg/kg measured up to 24 hrs; assay type: ADME, organism-based; details: in vivo
# [24] = human, caco-2, pH 7.4; remark: listed apart in the source
# [25] = Cmax in Sprague-Dawley rat at 28 mg/kg, po measured up to 24 hrs; assay type: ADME, organism-based; parameters: route oral, dose 28 mg/kg, time <=24; details: in vivo
# Plasmodium falciparum [26] = test system: Plasmodium falciparum
# Sequence of Dihydroorotate dehydrogenase (quinone), mitochondrial (Rattus norvegicus, UniProt Q63707) (Q63707 whole entry): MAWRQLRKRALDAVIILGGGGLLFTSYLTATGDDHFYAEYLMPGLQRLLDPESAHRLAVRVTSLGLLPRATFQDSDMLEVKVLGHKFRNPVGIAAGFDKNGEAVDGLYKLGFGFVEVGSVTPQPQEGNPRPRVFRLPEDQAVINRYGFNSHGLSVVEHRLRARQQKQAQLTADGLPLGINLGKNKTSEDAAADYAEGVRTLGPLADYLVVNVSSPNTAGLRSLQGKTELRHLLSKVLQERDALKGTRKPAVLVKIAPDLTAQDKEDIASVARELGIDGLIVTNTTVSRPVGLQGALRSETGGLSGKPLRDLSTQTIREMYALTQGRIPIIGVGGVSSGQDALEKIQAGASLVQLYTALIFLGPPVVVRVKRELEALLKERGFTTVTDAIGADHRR
structure (smiles),measurement,setting,value
Cc1cc(C(C)NC(=O)c2[nH]cc(Cc3ccc(C(F)(F)F)nc3)c2C)no1 (stereo in doubt; form 1),inhibition (INH),[1],Not Active
same,Activity,HepG2,Non-Toxic
same,AUC(0-inf),[2],160 µM·h
same,Vd at 24 h,[3],1.4 L/kg
same,CL free,[4],111 µL/min/mg
same,Intrinsic clearance,[5],63 µL/min/mg
same,Tmax,[6],1 h
same,inhibition (INH),[7],Not Active
same,half-life,[8],2.3 h
same,inhibition (INH),[9],Not Active
same,Tmax,[10],4.3 h
same,PPB,[11],94.7%
same,Cmax,[12],13 µM
same,Activity,Albumin,75%
same,bioavailability,[13],61%
same,IC50,[14],7.2 nM
same,Activity,[15],43.3%
same,Activity,L1210,Non-Toxic
same,Papp,[16],48 10^-6 cm/s
same,EC50,Plasmodium berghei,8.3 nM
same,PPB,[17],92.2%
same,PPB,[18],93.7%
same,EC50,Plasmodium falciparum [19],8.7 nM
same,clearance at 24 h,[20],7.7 mL/min/kg
same,half-life,[21],4.1 h
same,AUC(0-inf),[22],66 µM·h
same,bioavailability,[23],43%
same,Papp,[24],57 10^-6 cm/s
same,Cmax,[25],16 µM
same,EC50,Plasmodium falciparum [26],9.3 nM
